Measurements taken from US8580856B2, “Acetaminophen/ibuprofen combinations and method for their use” (McNeil-PPC, Inc., priority 2006, dated 2013).

Test system: CO2-laser-induced painful stimulus on UV(B) irradiated skin
Assay: Laser somatosensory evoked potentials (LSEP) analgesia study, peak-to-peak amplitude
Type: in vivo, human
Details: for Estimate (difference between Treatment A and Treatment B), peak-to-peak LSEP amplitude: single oral dose, 24 subjects, cross-over; for Analgesic effectiveness versus placebo (peak-to-peak LSEP amplitudes), in words: FIG. 1 and Table C
Method: General Timing of Study: Each subject was treated on six different treatment days in a randomized, placebo-controlled, double-blind six sequence cross-over study, with each treatment being a different dosage combination of acetaminophen (“APAP”) and ibuprofen (“IBU”) administered in a random order. The total duration of the study per subject was about 46 days. The washout period between the six treatment days was about 7 days. About 2 to 14 days before receiving the first treatment, each subject participated in a one-day, pre-study examination visit.
On each treatment day, each subject stayed for approximately 7 hours at the treatment center, and followed the schedule set forth below in Table A:
Method of Pain Induction: A pulsed CO2 laser, which is commercially available from Synrad, Inc., under the tradename, “Synrad Infrared Gas Laser,” model E48−/−26W was used to induce painful stimuli in the desired skin location.
Evaluation of Pain Relief: Laser induced somatosensory evoked potentials (LSEPs), which served as an objective-quantitative measurement of pain, were generating using Vertex-EEG readings collected using a MUX800/UBV800 Multiplexer and universal bio-amplifier with integrated 15 Hz-impedance measurement, both of which are commercially available from Rimkus Medizintechnik. Twelve artifact free EEG-sections of 3 second duration were averaged in two steps: (1.) 3×4 original sweeps; and (2.) 3×1 averaged sweeps, digitally filtered (Gaussian phase-free software filter on the basis of a Fast Fourier Transform (FFT), with ranges from 1.0 Hz to 12.5 Hz (first step) and 1.5 to 10.0 Hz (second step)). Means were analyzed for a time window of 600 ms after laser stimulation to identify and measure the components of the evoked potentials (latencies and amplitudes). The N1 and P2 components, which are the pain related components of the EEG-signal, were derived as described above and analyzed in accordance with the procedure set forth in Schaffler K., et al., “Analgesic effects of low-dose intravenous orphenadrine in the state of capsaicin hyperalgesia. A randomised, placebo-controlled, double-blind cross-over study using laser somatosensory evoked potentials obtained from capsaicin-irritated skin in healthy volunteers,” 54(10) Arzneimittel-Forschung. 673-9 (2004). The N1-P2-peak-to peak amplitudes as well as the amplitudes of the individual N1 and P2 components were determined from the Vertex-EEG reading, and the correlated pain response was thereby determined in accordance with the procedure generally set forth in Seibel, K., et al., “Comparison of Two Different Preparations of Ibuprofen with Regard to the Time Course of their Analgesic Effect,” 54(8) Arnzeimittel-Forschung 444-51 (2004). The LSEP recording at hour −2:05 served as baseline (=t0). Drug induced analgesia was reflected by an amplitude reduction versus control or comparator treatment.
According to this procedure, a change in LSEP amplitude of about 1.0 to 3.0 μV was previously determined to be generally sufficient to allow for statistically significant discrimination between, for example, a given active agent vs. placebo, vs. other active agents, and/or vs. different dosages of the same active agent. An amplitude difference in the LSEP that exceeds about 2.0-2.5 μV (in peak-to-peak (PtP) amplitude) and > about 1.00-1.25 μV (for the single N1- and P2-components) was defined as clinically relevant.
The procedure set forth in Example 1 was independently performed on 24 subjects in a randomized, placebo-controlled, double-blind 6 sequence cross-over study. The six ibuprofen/acetaminophen treatments administered on the treatment days consisted of two white caplets and 4 red tablets comprised of the doses set forth in Table B: […]

[1] = Treatment B = Placebo, over the treatment period

Row | SMILES | Estimate (difference between Treatment A and Treatment B), peak-to-peak LSEP amplitude (Treatment B = APAP250 + IBU300) | Estimate (difference between Treatment A and Treatment B), peak-to-peak LSEP amplitude (Treatment B = APAP500 + IBU200) | Estimate (difference between Treatment A and Treatment B), peak-to-peak LSEP amplitude (Treatment B = APAP750 + IBU100) | Estimate (difference between Treatment A and Treatment B), peak-to-peak LSEP amplitude (Treatment B = IBU400) | Estimate (difference between Treatment A and Treatment B), peak-to-peak LSEP amplitude [1] | Analgesic effectiveness versus placebo (peak-to-peak LSEP amplitudes), in words
1 | CC(=O)Nc1ccc(O)cc1 [APAP 1000 mg, acetaminophen] | 1.6417 | 1.5389 | 2.7487 | 0.01133 | −4.4020 | significantly more effective analgesics than the placebo
2 | CC(C)Cc1ccc(C(C)C(=O)O)cc1 (centres unmarked) [IBU 400 mg, ibuprofen] |  |  |  |  | −4.4134 | significantly more effective analgesics than the placebo
